This is an account of results in patent publication US20220008372A1, “BACLOFEN FOR USE IN THE TOPICAL TREATMENT OF LOCALIZED MUSCULOSKELETAL PAIN” (ASSISTANCE PUBLIQUE - HOPITAUX DE PARIS, priority 2018, published 2022).

For experiment [1], the system named is patients with localized musculoskeletal pain. Put plainly: Example III: case reports of 3 patients applying topical baclofen. The experiment is classed as in vivo, human.
Experiment [2] has the same test system. The experiment in a line: Example 1: topical Baclofen cream in 19 patients, pain intensity on Visual Analogue Scale. The experiment is classed as in vivo, human. Conditions: patient, facioscapulohumeral muscular dystrophy, before applying topical baclofen. How it is done: The cream was prepared with Baclofen powder mixed with a Pentravan® Base (Fagron) at a final concentration of 10% w/w.
The intensity of pain was rated using a Visual Analogue Scale (VAS) from 1 to 10.

Where [3] appears, read: patient, Facioscapulohumeral muscular dystrophy, before topical baclofen.

Consider `COc1c(O[C@@H]2O[C@H](CO)[C@@H](O)[C@H](O)[C@H]2O)cc2c(c1OC)-c1ccc(SC)c(=O)cc1[C@@H](NC(C)=O)CC2` [Thiocolchicoside], for which the “efficiency of earlier pain treatment” value in experiment [1] (human, in vivo) is “poor efficiency”. Take `CC(=O)Nc1ccc(O)cc1` [paracetamol]: the “efficiency of earlier pain treatment” value in experiment [2] is “poor efficiency”. On to `NCC(CC(=O)O)c1ccc(Cl)cc1` (stereo not drawn) [baclofen per os, β-(4-chlorophenyl)-γ-aminobutyric acid], for which the “efficiency of earlier pain treatment” value in experiment [1] (human, in vivo) is reported as “poor efficiency”. Take `NCC1(CC(=O)O)CCCCC1` [gabapentine]: the “efficiency of earlier pain treatment” value in experiment [2] is recorded as “poor efficiency”. On to `COc1cccc(C2(O)CCCCC2CN(C)C)c1` (stereo not drawn) [tramadol], for which, in experiment [2], the “efficiency of earlier pain treatment” value is “poor efficiency”.

In the case of `CN(C)CCC=C1c2ccccc2CCc2ccccc21` [amitriptyline], the “efficiency of earlier pain treatment” value in experiment [2] and in experiment [1] (setting [3]) was “poor efficiency” throughout.

With `CC(C(=O)O)c1cccc(C(=O)c2ccccc2)c1` (stereo not drawn) [ketoprofene], the “efficiency of earlier pain treatment” value in experiment [2] is listed as “poor efficiency”.

Turning to `C=CC1CN2CCC1CC2C(O)c1ccnc2ccc(OC)cc12.O=C(O)c1ccccc1` (stereo not drawn) [Quinine benzoate], in experiment [1] (setting [3]), the “efficiency of earlier pain treatment” value is “poor efficiency”.
